In PubChem BioAssay AID588598 (Sanford-Burnham Center for Chemical Genomics, 2011):
pIC50: −log10 of the molar value.

Molecular target: Sentrin-specific protease 6 (Homo sapiens) (UniProt Q9GZR1)
Experiment: inhibition of human SENP6 catalytic domain – biochemical, luminescence, set 2, SAR follow-up (AID 588598)
Settings: recombinant SENP6, Z-RLRGG-aminoluciferin cleavage, 30 min

Sequence of Sentrin-specific protease 6 (Homo sapiens) (Q9GZR1 628-1112 limits assumed): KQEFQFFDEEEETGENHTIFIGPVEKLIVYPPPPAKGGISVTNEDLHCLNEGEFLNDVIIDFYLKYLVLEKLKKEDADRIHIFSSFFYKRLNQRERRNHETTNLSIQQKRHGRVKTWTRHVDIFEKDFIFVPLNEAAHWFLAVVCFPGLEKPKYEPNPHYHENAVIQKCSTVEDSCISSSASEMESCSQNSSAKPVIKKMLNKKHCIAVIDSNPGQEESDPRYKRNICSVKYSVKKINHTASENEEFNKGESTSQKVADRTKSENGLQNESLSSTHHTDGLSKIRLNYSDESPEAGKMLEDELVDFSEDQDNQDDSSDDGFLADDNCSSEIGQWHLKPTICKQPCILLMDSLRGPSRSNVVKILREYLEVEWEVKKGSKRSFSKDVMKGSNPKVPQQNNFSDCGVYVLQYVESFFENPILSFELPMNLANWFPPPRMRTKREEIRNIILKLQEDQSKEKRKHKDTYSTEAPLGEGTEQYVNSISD

`O=C(Nc1nc2ccc(Cl)cc2s1)c1cccs1` was tested, and the pIC50 was 5.89.
